According to patent US11590116B2 (THERAVANCE BIOPHARMA R&D IP, LLC, priority 2019, dated 2023):

Legend:
[1] = test system: TGF-β-stimulated SMAD3 phosphorylation in BEAS-2B cells; assay: Cellular ALK5 potency assay, inhibition of TGF-β stimulated pSMAD3 formation in BEAS-2B cells; type: cell-based; conditions: Homo sapiens; inhibition of TGF-β stimulated pSMAD3 formation, BEAS-2B cells; read-out: BEAS2B pIC50 (converted)
Summary of the method: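 Potency is reported as pIC50, derived from concentration-dependent reduction of pSMAD3 AlphaLISA signal against TGF-β-stimulated cells without compound. BEAS-2B cells received compound for 1 h before a 30-min stimulation with 10 ng/mL TGF-β.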

[2] = molecular target: T1, recombinant human ALK5 (TGF-βR1) protein (Homo sapiens, UniProt P36897); assay: Biochemical ALK5 (TGF-βR1) assay to measure pKi (LANCE Ultra ULight kinase assay); conditions: apparent pKi from pIC50 by Cheng-Prusoff, read-out: ALK5 pKi (converted)
T1 construct: purchased Life Technologies PR9075A
T1 sequence (P36897 34-503): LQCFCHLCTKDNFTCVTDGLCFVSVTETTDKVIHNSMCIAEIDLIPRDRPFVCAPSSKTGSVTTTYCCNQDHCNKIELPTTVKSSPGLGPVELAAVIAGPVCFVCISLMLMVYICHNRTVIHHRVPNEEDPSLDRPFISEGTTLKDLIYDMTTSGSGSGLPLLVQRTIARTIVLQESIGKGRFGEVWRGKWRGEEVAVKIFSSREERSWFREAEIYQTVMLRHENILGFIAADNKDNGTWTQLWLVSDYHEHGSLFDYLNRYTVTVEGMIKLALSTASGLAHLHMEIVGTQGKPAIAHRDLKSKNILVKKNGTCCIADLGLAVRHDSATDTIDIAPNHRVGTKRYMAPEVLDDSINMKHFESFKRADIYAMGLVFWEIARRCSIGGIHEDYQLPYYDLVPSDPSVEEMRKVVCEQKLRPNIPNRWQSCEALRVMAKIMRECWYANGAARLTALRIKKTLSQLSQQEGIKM
Summary of the method: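 Compounds (10 μM to 25 pM) preincubated 60 minutes at room temperature with enzyme, then reaction run 60 minutes at 37° C with ATP added as 125 μM (5× final). Stopped with EDTA plus Eu-anti-phospho-Topoisomerase 2-alpha (Thr1342) antibody, TR-FRET read at 665 nm; pIC50 converted to pKi via Cheng-Prusoff.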

With Cc1cccc(-c2[nH]cnc2-c2ccc3ncc(-c4nc(C(=O)OCCN5CC[C@@H](N)C5)cs4)cc3c2)n1 [Compound 1246, 2-[(3R)-3-aminopyrrolidin-1-yl]ethyl 2-[6-[5-(6-methyl-2-pyridyl)-1H-imidazol-4-yl]-3-quinolyl]thiazole-4-carboxylate] the IC50 [1] was 200 to 1260 nM and the Ki [2] was 0.0398 to 0.316 nM.

With Cc1cccc(-c2[nH]cnc2-c2ccc3ncc(-c4cncc(C(=O)O[C@H]5CCNC5)c4)cc3c2)n1 [Compound 719, [(3S)-pyrrolidin-3-yl] 5-[6-[5-(6-methyl-2-pyridyl)-1H-imidazol-4-yl]-3-quinolyl]pyridine-3-carboxylate] the IC50 [1] was 200 to 1260 nM and the Ki [2] was 0.0398 to 0.316 nM.

Work on Cc1cccc(-c2n[nH]cc2-c2ccc3ncc(NCC(C)(C)N4CCN(C(C)C)CC4)cc3n2)n1 [Compound 698, N-[2-(4-isopropylpiperazin-1-yl)-2-methyl-propyl]-6-[3-(6-methyl-2-pyridyl)-1H-pyrazol-4-yl]-1,5-naphthyridin-3-amine] yielded an IC50 [1] of 25.1 to 158 nM and a Ki [2] of 0.0398 to 0.316 nM.

Cc1nc(-c2n[nH]cc2-c2ccc3ncc(NCCN4CCN(C(C)C)CC4)cc3c2)ccc1F [Compound 166, 6-[3-(5-fluoro-6-methyl-2-pyridyl)-1H-pyrazol-4-yl]-N-[2-(4-isopropylpiperazin-1-yl)ethyl]quinolin-3-amine] was tested, and the IC50 [1] was 25.1 to 158 nM and the Ki [2] was 0.0398 to 0.316 nM.

Cc1cccc(-c2n[nH]cc2-c2ccc3ncc(-c4cnc5n4CCN5)cc3n2)n1 [Compound 681, 7-(6,7-dihydro-5H-imidazo[1,2-a]imidazol-3-yl)-2-[3-(6-methyl-2-pyridyl)-1H-pyrazol-4-yl]-1,5-naphthyridine] was tested, and the IC50 [1] was 25.1 to 158 nM and the Ki [2] was < 0.0316 nM.

In the case of Cc1cccc(-c2n[nH]cc2-c2ccc3ncc(-c4cn(C)nn4)cc3n2)n1 [Compound 71, 2-[3-(6-methyl-2-pyridyl)-1H-pyrazol-4-yl]-7-(1-methyltriazol-4-yl)-1,5-naphthyridine], the IC50 [1] is reported as 25.1 to 158 nM and the Ki [2] is reported as < 0.0316 nM.

With Cc1cccc(-c2[nH]cnc2-c2ccc3ncc(C4=CCC(N(C)C)CC4)cc3c2)n1 (centres unmarked) [Compound 629, N,N-dimethyl-4-(6-(5-(6-methylpyridin-2-yl)-1H-imidazol-4-yl)quinolin-3-yl)cyclohex-3-en-1-amine] the IC50 [1] was 25.1 to 158 nM and the Ki [2] was < 0.0316 nM.

COC(=O)c1cnc2ccc(-c3nc[nH]c3-c3cccc(C)n3)cc2c1 [Compound 732, methyl 6-[5-(6-methyl-2-pyridyl)-1H-imidazol-4-yl]quinoline-3-carboxylate] was tested, and the IC50 [1] was < 20 nM and the Ki [2] was 0.0398 to 0.316 nM.

With Cc1nc(-c2nc3ccccn3c2-c2ccc3ncc(-c4cn[nH]c4)cc3n2)ccc1F [Compound 169, 2-[2-(5-fluoro-6-methyl-2-pyridyl)imidazo[1,2-a]pyridin-3-yl]-7-(1H-pyrazol-4-yl)-1,5-naphthyridine] the IC50 [1] was < 20 nM and the Ki [2] was 0.0398 to 0.316 nM.

With Cc1cccc(-c2[nH]ncc2-c2ccc3ncc(C(=O)OCCN4CCCCC4)cc3c2)n1 [Compound 1173, 2-(1-piperidyl)ethyl 6-[5-(6-methyl-2-pyridyl)-1H-pyrazol-4-yl]quinoline-3-carboxylate] the IC50 [1] was 25.1 to 158 nM and the Ki [2] was 0.0398 to 0.316 nM.

Compound Cc1cccc(-c2[nH]ncc2-c2ccc3ncc(C(=O)O)cc3n2)n1 [Compound 553, 6-[5-(6-methyl-2-pyridyl)-1H-pyrazol-4-yl]-1,5-naphthyridine-3-carboxylic acid] has an IC50 [1] of 1580 to 10000 nM and a Ki [2] of 3.98 to 31.6 nM.

With CNCCn1cc(-c2cnc3ccc(-c4c[nH]nc4-c4cccc(C)n4)nc3c2OC)cn1 [Compound 127, 2-[4-[4-methoxy-6-[3-(6-methyl-2-pyridyl)-1H-pyrazol-4-yl]-1,5-naphthyridin-3-yl]pyrazol-1-yl]-N-methyl-ethanamine] the IC50 [1] was 25.1 to 158 nM and the Ki [2] was < 0.0316 nM.

Compound Cc1cccc(-c2n[nH]cc2-c2ccc3ncc(CCC(=O)N4CCN(C(C)C)CC4)cc3n2)n1 [Compound 372, 1-(4-isopropylpiperazin-1-yl)-3-[6-[3-(6-methyl-2-pyridyl)-1H-pyrazol-4-yl]-1,5-naphthyridin-3-yl]propan-1-one] has an IC50 [1] of 25.1 to 158 nM and a Ki [2] of 0.398 to 3.16 nM.

Cc1cccc(-c2n[nH]cc2-c2ccc3ncc(NC(=O)CCN4CCN(C(C)C)CC4)cc3n2)n1 [Compound 530, 3-(4-isopropylpiperazin-1-yl)-N-[6-[3-(6-methyl-2-pyridyl)-1H-pyrazol-4-yl]-1,5-naphthyridin-3-yl]propanamide] gave an IC50 [1] of 25.1 to 158 nM and a Ki [2] of 0.0398 to 0.316 nM.

Cc1cccc(-c2n[nH]cc2-c2ccc3ncc(-c4cc(C(F)(F)F)n[nH]4)cc3n2)n1 [Compound 139, 2-[3-(6-methyl-2-pyridyl)-1H-pyrazol-4-yl]-7-[3-(trifluoromethyl)-1H-pyrazol-5-yl]-1,5-naphthyridine] gave an IC50 [1] of 25.1 to 158 nM and a Ki [2] of 0.0398 to 0.316 nM.

For Cc1cccc(-c2n[nH]cc2-c2ccc3nccc(NC(=O)CN4CCOCC4)c3n2)n1 [Compound 840, N-[6-[3-(6-methyl-2-pyridyl)-1H-pyrazol-4-yl]-1,5-naphthyridin-4-yl]-2-morpholino-acetamide], the IC50 [1] was 25.1 to 158 nM and the Ki [2] was 0.0398 to 0.316 nM.

For Cc1cccc(-c2[nH]cnc2-c2ccc3ncc(-c4cccc(C(=O)O[C@H]5CCNC5)c4)cc3c2)n1 [Compound 707, [(3S)-pyrrolidin-3-yl] 3-[6-[5-(6-methyl-2-pyridyl)-1H-imidazol-4-yl]-3-quinolyl]benzoate], the IC50 [1] was 25.1 to 158 nM and the Ki [2] was 0.0398 to 0.316 nM.

Cc1cccc(-c2[nH]cnc2-c2ccc3ncc(-c4ncc(C(=O)O[C@H]5CCNC5)s4)cc3c2)n1 [Compound 1160, [(3S)-pyrrolidin-3-yl] 2-[6-[5-(6-methyl-2-pyridyl)-1H-imidazol-4-yl]-3-quinolyl]thiazole-5-carboxylate] was tested, and the IC50 [1] was < 20 nM and the Ki [2] was < 0.0316 nM.

For Cc1cccc(-c2[nH]cnc2-c2ccc3ncc(-c4csc(C(=O)OC[C@H]5CCCCN5)c4)cc3c2)n1 [Compound 1207, [(2R)-2-piperidyl]methyl 4-[6-[5-(6-methyl-2-pyridyl)-1H-imidazol-4-yl]-3-quinolyl]thiophene-2-carboxylate], the IC50 [1] was 25.1 to 158 nM and the Ki [2] was < 0.0316 nM.

For Cc1cccc(-c2[nH]cnc2-c2ccc3ncc(-c4csc(C(=O)O[C@@H]5CCN(C)C5)c4)cc3c2)n1 [Compound 750, [(3R)-1-methylpyrrolidin-3-yl] 4-[6-[5-(6-methyl-2-pyridyl)-1H-imidazol-4-yl]-3-quinolyl]thiophene-2-carboxylate], the IC50 [1] was < 20 nM and the Ki [2] was 0.0398 to 0.316 nM.

With Cc1cccc(-c2n[nH]cc2-c2ccc3ncc(-c4ccc(C)nc4C)cc3n2)n1 [Compound 436, 7-(2,6-dimethyl-3-pyridyl)-2-[3-(6-methyl-2-pyridyl)-1H-pyrazol-4-yl]-1,5-naphthyridine] the IC50 [1] was 25.1 to 158 nM and the Ki [2] was 0.0398 to 0.316 nM.

Work on Cc1cccc(-c2[nH]cnc2-c2ccc3ncc(-c4cncc(C(=O)O[C@H]5CCN(C)C5)c4)cc3c2)n1 [Compound 704, [(3S)-1-methylpyrrolidin-3-yl] 5-[6-[5-(6-methyl-2-pyridyl)-1H-imidazol-4-yl]-3-quinolyl]pyridine-3-carboxylate] yielded an IC50 [1] of 25.1 to 158 nM and a Ki [2] of 0.0398 to 0.316 nM.

With Cc1cccc(-c2n[nH]cc2-c2ccc3ncc(C(=O)NCCCN4CCN(C(C)C)CC4)cc3n2)n1 [Compound 55, N-[3-(4-isopropylpiperazin-1-yl)propyl]-6-[3-(6-methyl-2-pyridyl)-1H-pyrazol-4-yl]-1,5-naphthyridine-3-carboxamide] the IC50 [1] was 200 to 1260 nM and the Ki [2] was 0.0398 to 0.316 nM.

In the case of Cc1cccc(-c2n[nH]cc2-c2ccc3ncc(-c4nc(C(N)=O)co4)cc3n2)n1 [Compound 480, 2-[6-[3-(6-methyl-2-pyridyl)-1H-pyrazol-4-yl]-1,5-naphthyridin-3-yl]oxazole-4-carboxamide], the IC50 [1] is reported as 25.1 to 158 nM and the Ki [2] is reported as 0.0398 to 0.316 nM.

With Cc1cccc(-c2[nH]ncc2-c2ccc3ncc(C(=O)OCCN4CCC[C@@H](N)C4)cc3c2)n1 [Compound 1241, 2-[(3R)-3-amino-1-piperidyl]ethyl 6-[5-(6-methyl-2-pyridyl)-1H-pyrazol-4-yl]quinoline-3-carboxylate] the IC50 [1] was 25.1 to 158 nM and the Ki [2] was 0.0398 to 0.316 nM.

Cc1cccc(-c2n[nH]cc2-c2ccc3ncc(N4CC(C)N(CCN)C(C)C4)cc3n2)n1 (centres unmarked) [Compound 283, 2-[2,6-dimethyl-4-[6-[3-(6-methyl-2-pyridyl)-1H-pyrazol-4-yl]-1,5-naphthyridin-3-yl]piperazin-1-yl]ethanamine] was tested, and the IC50 [1] was 200 to 1260 nM and the Ki [2] was 0.0398 to 0.316 nM.

Cc1cccc(-c2[nH]cnc2-c2ccc3ncc(NCCN4CCN[C@@H](CO)C4)cc3c2)n1 [Compound 708, [(2R)-4-[2-[[6-[5-(6-methyl-2-pyridyl)-1H-imidazol-4-yl]-3-quinolyl]amino]ethyl]piperazin-2-yl]methanol] gave an IC50 [1] of 200 to 1260 nM and a Ki [2] of 0.0398 to 0.316 nM.

For Cc1cccc(-c2n[nH]cc2-c2ccc3ncc(-c4cnn(CCN)c4)cc3n2)n1 [Compound 305, 2-[4-[6-[3-(6-methyl-2-pyridyl)-1H-pyrazol-4-yl]-1,5-naphthyridin-3-yl]pyrazol-1-yl]ethanamine], the IC50 [1] was 25.1 to 158 nM and the Ki [2] was < 0.0316 nM.
